From the NIST ThermoML archive (doi:10.1021/je060247x)
Numbers after ± are expanded uncertainties.

Conditions: Liquid

CCCCCCCC[n+]1ccn(C)c1.F[B-](F)(F)F [1-methyl-3-octylimidazolium tetrafluoroborate]
mass density [kg/m3]
Conditions	100 kPa	1000 kPa	2000 kPa	3000 kPa	4000 kPa	5000 kPa	10000 kPa
293.15 K	1108.7 ± 1	1109.1 ± 1	1109.6 ± 1	1110 ± 1	1110.5 ± 1.1	1110.9 ± 1.1	1113.1 ± 1.2
303.15 K	1100.7 ± 0.9	1101.1 ± 1	1101.6 ± 1	1102.1 ± 1	1102.6 ± 1	1103.1 ± 1.1	1105.4 ± 1.2
313.15 K	1092.9 ± 0.9	1093.4 ± 0.9	1093.9 ± 1	1094.4 ± 1	1094.9 ± 1	1095.4 ± 1	1097.9 ± 1.2
323.15 K	1085.4 ± 0.9	1085.9 ± 0.9	1086.4 ± 0.9	1087 ± 1	1087.5 ± 1	1088 ± 1	1090.6 ± 1.1
333.15 K	1078.2 ± 0.9	1078.7 ± 0.9	1079.3 ± 0.9	1079.8 ± 0.9	1080.3 ± 1	1080.9 ± 1	1083.5 ± 1.1
343.15 K	1071.4 ± 0.9	1072 ± 0.9	1072.5 ± 0.9	1073.1 ± 0.9	1073.7 ± 0.9	1074.2 ± 1	1076.9 ± 1.1
353.15 K	1064.7 ± 0.9	1065.2 ± 0.9	1065.8 ± 0.9	1066.4 ± 0.9	1067 ± 0.9	1067.6 ± 0.9	1070.3 ± 1
363.15 K	1058.6 ± 0.8	1059.1 ± 0.9	1059.8 ± 0.9	1060.4 ± 0.9	1061 ± 0.9	1061.6 ± 0.9	1064.4 ± 1
373.15 K	1052.4 ± 0.8	1053 ± 0.8	1053.7 ± 0.9	1054.3 ± 0.9	1054.9 ± 0.9	1055.5 ± 0.9	1058.5 ± 1
383.15 K	1046.6 ± 0.8	1047.2 ± 0.8	1047.9 ± 0.8	1048.5 ± 0.9	1049.2 ± 0.9	1049.8 ± 0.9	1052.9 ± 0.9
393.15 K	1040.9 ± 0.8	1041.5 ± 0.8	1042.1 ± 0.8	1042.8 ± 0.8	1043.4 ± 0.9	1044.1 ± 0.9	1047.2 ± 0.9

CCCCCCCC[n+]1ccn(C)c1.F[P-](F)(F)(F)(F)F [1-octyl-3-methylimidazolium hexafluorophosphate]
mass density [kg/m3]
Conditions	100 kPa	1000 kPa	2000 kPa	3000 kPa	4000 kPa	5000 kPa	10000 kPa
293.15 K	1242.4 ± 2.8	1242.9 ± 2.9	1243.5 ± 3	1244.1 ± 3.1	1244.6 ± 3.2	1245.1 ± 3.3	1247.8 ± 3.9
303.15 K	1233.8 ± 2.7	1234.4 ± 2.8	1235 ± 2.9	1235.6 ± 3	1236.1 ± 3.1	1236.7 ± 3.3	1239.5 ± 3.8
313.15 K	1225.3 ± 2.6	1225.9 ± 2.7	1226.5 ± 2.8	1227.1 ± 3	1227.7 ± 3.1	1228.3 ± 3.2	1231.1 ± 3.7
323.15 K	1217.6 ± 2.6	1218.2 ± 2.7	1218.8 ± 2.8	1219.4 ± 2.9	1220 ± 3	1220.6 ± 3.1	1223.4 ± 3.7
333.15 K	1209.1 ± 2.5	1209.7 ± 2.6	1210.3 ± 2.7	1211 ± 2.8	1211.6 ± 2.9	1212.2 ± 3	1215.1 ± 3.6
343.15 K	1201 ± 2.5	1201.6 ± 2.6	1202.3 ± 2.7	1203 ± 2.8	1203.6 ± 2.9	1204.3 ± 3	1207.4 ± 3.5
353.15 K	1193.6 ± 2.4	1194.3 ± 2.5	1195 ± 2.6	1195.7 ± 2.7	1196.3 ± 2.8	1197.1 ± 2.9	1200.3 ± 3.4
363.15 K	1186.2 ± 2.4	1186.9 ± 2.5	1187.6 ± 2.6	1188.3 ± 2.7	1189 ± 2.7	1189.7 ± 2.8	1193 ± 3.3
373.15 K	1179.2 ± 2.3	1179.9 ± 2.4	1180.6 ± 2.5	1181.3 ± 2.6	1182 ± 2.7	1182.7 ± 2.8	1186.1 ± 3.2
383.15 K	1172.7 ± 2.3	1173.5 ± 2.4	1174.2 ± 2.5	1174.9 ± 2.6	1175.6 ± 2.6	1176.3 ± 2.7	1179.8 ± 3.2
393.15 K	1166 ± 2.3	1166.8 ± 2.3	1167.5 ± 2.4	1168.3 ± 2.5	1169.1 ± 2.6	1169.8 ± 2.7	1173.5 ± 3.1
